The assay has as its target T1, human APJ receptor (Homo sapiens, UniProt P35414).
T1 construct: expressed in transfected cells
T1 sequence (P35414 1-380): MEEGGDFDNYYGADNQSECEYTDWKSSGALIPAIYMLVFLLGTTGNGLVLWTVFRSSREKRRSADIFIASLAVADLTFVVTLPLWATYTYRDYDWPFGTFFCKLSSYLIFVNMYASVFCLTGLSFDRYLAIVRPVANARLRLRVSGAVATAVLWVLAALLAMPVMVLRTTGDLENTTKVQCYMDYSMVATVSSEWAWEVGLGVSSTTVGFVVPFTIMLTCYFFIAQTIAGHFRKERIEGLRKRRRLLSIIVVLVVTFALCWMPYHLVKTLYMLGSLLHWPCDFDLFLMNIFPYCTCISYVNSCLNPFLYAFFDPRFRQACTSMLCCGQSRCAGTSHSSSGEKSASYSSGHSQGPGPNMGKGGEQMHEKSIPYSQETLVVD
Description: Intracellular cAMP accumulation assay (APJ hcAMP, HTRF). The class given is cell-based. The conditions noted are these: HEK293 cells stably expressing human APJ receptor. On the procedure:
Intracellular cAMP Accumulation Assay
HEK293 cells stably expressing human APJ receptor were used to assess the activity of compounds. Cultured cells were detached and resuspended in the cAMP Homogeneous Time-Resolved Fluorescence (HTRF) assay buffer (Cisbio cat; #62AM4PEJ). The assay was performed in 384-well assay plates (Perkin-Elmer; cat #6008289) according to assay protocol provided by the manufacturer. Serial dilutions of a compound together with assay buffer containing […] IBMX and 2 μM forskolin were added to each well containing 5,000 cells and incubated for 30 minutes at room temperature. Subsequently, cAMP D2 reagent was added in the lysis buffer followed by the EuK antibody (Cisbio; cat #62AM4PEJ) and incubated for 60 min. The fluorescence emission ratio was measured using fluorometer. The intracellular cAMP concentrations (compound-stimulated inhibition of forskolin-mediated cAMP production) were calculated by extrapolation from a standard curve using known cAMP concentrations. The EC50 values were obtained by fitting the data to a sigmoidal concentration-response curve with variable slope. The maximal achievable inhibition of forskolin-induced cAMP levels (Ymax) for each compound was expressed as relative percentage of inhibition attained using pyroglutamated apelin-13 ((Pyr1)apelin-13) peptide, which was set to 100%.
The examples disclosed below were tested in the APJ in vitro assays described above and were found having human APJ cyclic AMP (hcAMP) activity. The EC50 value of each compound is presented at the end of the example description.
The biological activity of the exemplified compounds of this invention determined by the assay described above is shown at the end of each example.
(In general: cAMP levels reflect the balance of adenylyl cyclase and phosphodiesterase activity.)

Setting [1] is: inhibition of forskolin-mediated cAMP production, stated at end of example, read-out: Human APJ cAMP Potency Range.
Where [2] appears, read: Table 1, read-out: hAPJ cAMP EC50 Potency range.

Each structure is given as a SMILES string. Like-named read-outs stand apart in the source and are kept apart here.

Consider `CCCCc1nc(O)c(-c2nnc(Cc3csc(C)n3)o2)c(=O)n1C(C)c1cccnc1` (racemic) [Example 124, 2-butyl-6-hydroxy-5-{5-[(2-methyl-1,3-thiazol-4-yl)methyl]-1,3,4-oxadiazol-2-yl}-3-[1-(pyridin-3-yl)ethyl]-3,4-dihydropyrimidin-4-one], for which the EC50 (Table 2, read-out: hAPJ cAMP EC50 Potency range) was in the range of 100 to 300 nM.
For the compound `CCCCc1nc(=O)c(-c2nnc(Cc3noc4ccccc34)o2)c(O)n1-c1c(OC)cccc1OC` [Example 1, 5-(5-(benzo[d]isoxazol-3-ylmethyl)-1,3,4-oxadiazol-2-yl)-2-butyl-1-(2,6-dimethoxyphenyl)-6-hydroxypyrimidin-4(1H)-one], the EC50 under setting [1] is 0.01 to 10 nM.
For the compound `CCCCc1nc(=O)c(-c2nnc(Cc3ccc(Cl)cc3)o2)c(O)n1-c1c(OC)cccc1OC` [Example 2, 2-butyl-5-{5-[(4-chlorophenyl)methyl]-1,3,4-oxadiazol-2-yl}-1-(2,6-dimethoxyphenyl)-6-hydroxy-1,4-dihydropyrimidin-4-one], the EC50 under setting [2] is 0.01 to 10 nM.
Turning to `C=CCCc1nc(=O)c(-c2nnc(Cc3noc4ccccc34)o2)c(O)n1-c1c(OC)cccc1OC` [Example 3, 5-[5-(1,2-benzoxazol-3-ylmethyl)-1,3,4-oxadiazol-2-yl]-2-(but-3-en-1-yl)-1-(2,6-dimethoxyphenyl)-6-hydroxy-1,4-dihydropyrimidin-4-one], the EC50 under setting [2] was 0.01 to 10 nM.
The same measure, in the same setting: as for `CCCCc1nc(=O)c(-c2nnc(Cc3noc4ccccc34)o2)c(O)n1-c1c(CC)cccc1CC` [Example 4, 5-[5-(1,2-benzoxazol-3-ylmethyl)-1,3,4-oxadiazol-2-yl]-2-butyl-1-(2,6-diethylphenyl)-6-hydroxy-1,4-dihydropyrimidin-4-one], the figure is 0.01 to 10 nM; as for `CCCCc1nc(=O)c(-c2nnc(Cc3csc(C)n3)o2)c(O)n1-c1c(OC)cccc1OC` [Example 5, 2-butyl-1-(2,6-dimethoxyphenyl)-6-hydroxy-5-{5-[(2-methyl-1,3-thiazol-4-yl)methyl]-1,3,4-oxadiazol-2-yl}-1,4-dihydropyrimidin-4-one], 0.01 to 10 nM.
Still for that read-out and setting: as for `CCCCc1nc(=O)c(-c2nnc(Cn3ccccc3=O)o2)c(O)n1-c1c(OC)cccc1OC` [Example 6, 2-butyl-1-(2,6-dimethoxyphenyl)-6-hydroxy-5-{5-[(2-oxo-1,2-dihydropyridin-1-yl)methyl]-1,3,4-oxadiazol-2-yl}-1,4-dihydropyrimidin-4-one], the figure is 0.01 to 10 nM; as for `COc1cccc(OC)c1-n1c(CCC(C)C)nc(=O)c(-c2nnc(CN3CCCC3=O)o2)c1O` [Example 7, 1-(2,6-dimethoxyphenyl)-6-hydroxy-2-(3-methylbutyl)-5-{5-[(2-oxopyrrolidin-1-yl)methyl]-1,3,4-oxadiazol-2-yl}-1,4-dihydropyrimidin-4-one], 0.01 to 10 nM.
Consider `CCCCc1nc(=O)c(-c2nnc(CN3CCCC3=O)o2)c(O)n1-c1c(OC)cccc1OC` [Example 8, 2-butyl-1-(2,6-dimethoxyphenyl)-6-hydroxy-5-{5-[(2-oxopyrrolidin-1-yl)methyl]-1,3,4-oxadiazol-2-yl}-1,4-dihydropyrimidin-4-one], for which the EC50 under setting [2] lay within 0.01 to 10 nM.
The same measure, in the same setting: the value for `CCCCc1nc(=O)c(-c2nnc(Cc3nc(-c4ccccn4)no3)o2)c(O)n1-c1c(OC)cccc1OC` [Example 9, 2-butyl-1-(2,6-dimethoxyphenyl)-6-hydroxy-5-(5-{[3-(pyridin-2-yl)-1,2,4-oxadiazol-5-yl]methyl}-1,3,4-oxadiazol-2-yl)-1,4-dihydropyrimidin-4-one] was 0.01 to 10 nM.
Take `COc1cccc(OC)c1-n1c(CCC(C)C)nc(=O)c(-c2nnc(Cn3ccccc3=O)o2)c1O` [Example 10, 1-(2,6-dimethoxyphenyl)-6-hydroxy-2-(3-methylbutyl)-5-{5-[(2-oxo-1,2-dihydropyridin-1-yl)methyl]-1,3,4-oxadiazol-2-yl}-1,4-dihydropyrimidin-4-one]: the EC50 under setting [2] fell in the range of 0.01 to 10 nM.
Same read-out and setting: as for `C=CCCc1nc(=O)c(-c2nnc(Cc3nc(-c4ccccn4)no3)o2)c(O)n1-c1c(OC)cccc1OC` [Example 11, 2-(but-3-en-1-yl)-1-(2,6-dimethoxyphenyl)-6-hydroxy-5-(5-{[3-(pyridin-2-yl)-1,2,4-oxadiazol-5-yl]methyl}-1,3,4-oxadiazol-2-yl)-1,4-dihydropyrimidin-4-one], the figure is 0.01 to 10 nM; as for `COc1cccc(OC)c1-n1c(CCCC(F)(F)F)nc(=O)c(-c2nnc(Cc3noc4ccccc34)o2)c1O` [Example 12, 5-[5-(1,2-benzoxazol-3-ylmethyl)-1,3,4-oxadiazol-2-yl]-1-(2,6-dimethoxyphenyl)-6-hydroxy-2-(4,4,4-trifluorobutyl)-1,4-dihydropyrimidin-4-one], 0.01 to 10 nM.
Same read-out and setting: as for `CCCCc1nc(=O)c(-c2nnc(Cc3noc4ccccc34)o2)c(O)n1-c1c(C)cccc1OC` [Example 13, 5-[5-(1,2-benzoxazol-3-ylmethyl)-1,3,4-oxadiazol-2-yl]-2-butyl-6-hydroxy-1-(2-methoxy-6-methylphenyl)-1,4-dihydropyrimidin-4-one], the figure is 0.01 to 10 nM; as for `C=CCCc1nc(=O)c(-c2nnc(Cc3ccc(Cl)cc3)o2)c(O)n1-c1c(OC)cccc1OC` [Example 14, 2-(but-3-en-1-yl)-5-{5-[(4-chlorophenyl)methyl]-1,3,4-oxadiazol-2-yl}-1-(2,6-dimethoxyphenyl)-6-hydroxy-1,4-dihydropyrimidin-4-one], 0.01 to 10 nM.
The same measure, in the same setting: the value for `CCCCc1nc(=O)c(-c2nnc(Cc3noc4ccccc34)o2)c(O)n1-c1c(Br)cccc1Br` [Example 15, 5-[5-(1,2-benzoxazol-3-ylmethyl)-1,3,4-oxadiazol-2-yl]-2-butyl-1-(2,6-dibromophenyl)-6-hydroxy-1,4-dihydropyrimidin-4-one] was 0.01 to 10 nM.
Take `COc1cccc(OC)c1-n1c(CCC(C)C)nc(=O)c(-c2nnc(CN3CCOCC3=O)o2)c1O` [Example 16, 4-({5-[1-(2,6-dimethoxyphenyl)-6-hydroxy-2-(3-methylbutyl)-4-oxo-1,4-dihydropyrimidin-5-yl]-1,3,4-oxadiazol-2-yl}methyl)morpholin-3-one]: under setting [2], the EC50 was in the range of 0.01 to 10 nM.
Still for that read-out and setting: the value for `C=CCCc1nc(=O)c(-c2nnc(Cc3noc4ccccc34)o2)c(O)n1-c1c(C)cccc1OC` [Example 17, 5-[5-(1,2-benzoxazol-3-ylmethyl)-1,3,4-oxadiazol-2-yl]-2-(but-3-en-1-yl)-6-hydroxy-1-(2-methoxy-6-methylphenyl)-1,4-dihydropyrimidin-4-one] was 0.01 to 10 nM; that for `CCCCc1nc(=O)c(-c2nnc(Cc3noc4ccccc34)o2)c(O)n1-c1c(OC)ncnc1OC` [Example 18, 5-[5-(1,2-benzoxazol-3-ylmethyl)-1,3,4-oxadiazol-2-yl]-2-butyl-1-(4,6-dimethoxypyrimidin-5-yl)-6-hydroxy-1,4-dihydropyrimidin-4-one] was 0.01 to 10 nM.
In the case of `CCCCc1nc(=O)c(-c2nnc(Cc3noc4ccccc34)o2)c(O)n1-c1c(Cl)cccc1Cl` [Example 19, 5-[5-(1,2-benzoxazol-3-ylmethyl)-1,3,4-oxadiazol-2-yl]-2-butyl-1-(2,6-dichlorophenyl)-6-hydroxy-1,4-dihydropyrimidin-4-one], the EC50 under setting [2] lay within 0.01 to 10 nM.
Turning to `COc1cccc(OC)c1-n1c(CC2CC2)nc(=O)c(-c2nnc(Cc3noc4ccccc34)o2)c1O` [Example 20, 5-[5-(1,2-benzoxazol-3-ylmethyl)-1,3,4-oxadiazol-2-yl]-2-(cyclopropylmethyl)-1-(2,6-dimethoxyphenyl)-6-hydroxy-1,4-dihydropyrimidin-4-one], under setting [2], the EC50 was in the range of 0.01 to 10 nM.
As to `COc1cccc(OC)c1-n1c(CC2CC2)nc(=O)c(-c2nnc(Cc3ccc(Cl)cc3)o2)c1O` [Example 21, 5-{5-[(4-chlorophenyl)methyl]-1,3,4-oxadiazol-2-yl}-2-(cyclopropylmethyl)-1-(2,6-dimethoxyphenyl)-6-hydroxy-1,4-dihydropyrimidin-4-one], the EC50 under setting [2] lay within 0.01 to 10 nM.
With `COc1cccc(OC)c1-n1c(CC2CC2)nc(=O)c(-c2nnc(Cc3nc(-c4ccccn4)no3)o2)c1O` [Example 22, 2-(cyclopropylmethyl)-1-(2,6-dimethoxyphenyl)-6-hydroxy-5-(5-{[3-(pyridin-2-yl)-1,2,4-oxadiazol-5-yl]methyl}-1,3,4-oxadiazol-2-yl)-1,4-dihydropyrimidin-4-one], the EC50 under setting [2] fell in the range of 0.01 to 10 nM.
In the case of `CCCCc1nc(=O)c(-c2nnc(Cc3noc4ccccc34)o2)c(O)n1-c1c(OCC)cccc1OCC` [Example 23, 5-(5-(Benzo[d]isoxazol-3-ylmethyl)-1,3,4-oxadiazol-2-yl)-2-butyl-1-(2,6-diethoxyphenyl)-6-hydroxypyrimidin-4(1H)-one], the EC50 under setting [1] was 0.01 to 10 nM.
